One series has as its system SK-MES-1 cells. The experiment in a line: MTT cell viability assay, lung cancer. The series is classed as cell-based. To be noted: Homo sapiens, SK-MES-1, 72 h. How it is done: (§1) Human cell lines were obtained from the American Type Culture Collection (ATCC, Manassas, VA, USA). Normal lung MRC-5 fibroblasts (ATCC® CCL-171™), SK-MES-1 lung cancer cells (ATCC® HTB-58™), and J82 bladder carcinoma cells (ATCC® HTB-1™) were grown as monolayers in Eagle’s minimum essential medium (MEM) with Earle’s salts, 2 mM L-glutamine, and 1.5 g/L sodium bicarbonate. Gastric epithelial AGS cells (ATCC® CRL-1739™) were grown as monolayers in Ham’s F-12 medium containing 1 mM L-glutamine and 1.5 g/L sodium bicarbonate. Promyelocytic leukemia HL-60 (ATCC® CCL-240™), colorectal adenocarcinoma HCT-15 (ATCC® CCL-225™), metastatic colorectal COLO205 (ATCC® CCL-222™), and breast cancer AU565 (ATCC® CRL-2351™, ER^−-HER2/neu^+) cells were grown in suspension in an RPMI-1640 medium containing 1 mM sodium pyruvate and 2.0 g/L sodium bicarbonate. Human breast cancer MCF-7 (ATCC® HTB-22™, ER^+-HER2/neu^−) and MDA-MB-231 (ATCC® HTB-26™, ER^−-HER2/neu^−) cells were grown as monolayers in DMEM medium. All media were supplemented with 10% heat-inactivated fetal bovine serum (HI-FBS), 100 IU/mL penicillin G, and 100 µg/mL streptomycin. Cells were maintained at 37 °C in a humidified incubator with 5% CO2.
(§2) MRC-5, SK-MES-1, J82, and AGS cells were seeded at a density of 5 × 10^4 cells/mL in 96-well plates. COLO205, HCT-15, MCF-7, MDA-MB-231, and AU565 cells were seeded at 1 × 10^5 cells/mL, while HL-60 cells were plated at 3 × 10^5 cells/mL. A volume of 100 µL of the cell suspension was added to each well. After 24 h, the compounds were added in increasing concentrations (ranging from 0 to 100 µM), and cells were incubated for 24, 48, or 72 h. The compounds were dissolved in DMSO and diluted in complete medium to a final concentration of 0.5% DMSO. Cells treated with 0.5% DMSO in complete medium were used as viability controls (100%). Etoposide (98% purity, Sigma-Aldrich, St. Louis, MO, USA) was used as the reference compound. Each concentration was tested in quadruplicate, and each experiment was performed twice using independent cell preparations. At the end of the incubation period, cell viability was determined using the MTT reduction assay. The results were transformed into percentages relative to controls, and IC50 values were obtained graphically from the dose–response curves. Results are presented as IC50 values ± standard deviation (SD).
On the technique in general: Formazan colour is commonly taken as a measure of viable cells.

The subject of a further series is AU565 cells. The experiment in a line: MTT cell viability assay, mammary carcinoma. The series is classed as cell-based, human. Particulars: Homo sapiens. How it is done: as §1, §2
A further series deals with HCT-15 cells. The experiment in a line: MTT cell viability assay, colorectal carcinoma. The series is classed as cell-based, human. Particulars: Homo sapiens. How it is done: as §1, §2
Another series relates to HL-60 cells. As to the kind of experiment: MTT cell viability assay, leukemia. The series is classed as cell-based. To be noted: Homo sapiens, HL-60, 72 h. How it is done:
as §1, §2

The next series relates to AGS cells. The experiment in a line: MTT cell viability assay, gastric adenocarcinoma. The series is classed as cell-based. Particulars: Homo sapiens, 72 h. On the procedure:
as §1, §2

For series [1], the system named is MRC-5 normal human lung fibroblasts. The experiment in a line: MTT cell viability assay, normal lung fibroblasts. The series is classed as cell-based. To be noted: MRC5, MRC-5, 72 h. How it is done: as §1, §2
Another series deals with COLO205 cells. As to the kind of experiment: MTT cell viability assay, metastatic colorectal cancer. The series is classed as cell-based, human. Particulars: Homo sapiens, COLO 205. On the procedure:
as §1, §2

A further series relates to J82 cells. The experiment in a line: MTT cell viability assay, bladder carcinoma. The series is classed as cell-based. Particulars: Homo sapiens, J82, 72 h. How it is done:
as §1, §2

The test system of the next series is human cancer cell lines. As to the kind of experiment: MTT cell viability, summary over the human cancer cell lines. The series is classed as cell-based. To be noted: nine human cancer cell lines, relative to BA, summary statement. How it is done:
as §1, §2

For series [2], the system named is MCF-7 cells. The experiment in a line: Oxygen consumption assay (Clark-type electrode). The series is classed as cell-based, human. Particulars: MCF-7, 10 and 20 µM. How it is done:
Oxygen consumption of the tumor cells was measured polarographically using a Clark-type electrode (Yellow Springs Instruments, Dayton, OH, USA) placed horizontally in a cell of 0.6 mL volume at 25 °C, coupled to a YSI monitor (model 53). The electrode signal was recorded in a computer connected to a DI-148U module with a USB interface. Data were acquired using the Windaq Acquisition Waveform Recorder software v3.36 (DataQ Instruments, Akron, OH, USA). The test medium used contained 150 mM NaCl, 5 mM KCl, and 1 mM Tris-HCl, and pH 7.4. 5 mM glutamine was added with the cells and test compounds. Oxygen consumption was recorded when the cell aliquots (6 × 10^6 cells) were added. Oligomycin (1.5 μg/mL) was added as an inhibitor of the Fo subunit of ATP synthase prior to the incorporation of the compounds under study. FCCP (carbonyl cyanide-p-trifluoromethoxyphenylhydrazone, 50 nM) was used prior to the addition of test compounds as an internal control to calibrate the electrode system and confirm the maximum uncoupling capacity of the cells.

In series [3] the test system is MCF-7 cells. The experiment in a line: MTT cell viability assay, mammary carcinoma. Particulars: Homo sapiens, MCF7. The series is classed as cell-based. How it is done:
as §1, §2

The subject of another series is MDA-MB-231 cells. The experiment in a line: MTT cell viability assay, mammary carcinoma. To be noted: Homo sapiens. The series is classed as cell-based. How it is done: as §1, §2
On the set-up of series [4]: method as in PMID 17576843, PMID 17638699. To be noted: oral administration, healthy individuals and patients with HIV, cited from earlier work.

Results on five molecules are retold here after publication PMC12292992, “Betulinic Acid ω-Triphenylphosphonium Alkyl Esters: Antiproliferative Activities and In Silico Pharmacokinetic Profiles” (Biomedicines, 2025).

What is called IC50 is the concentration that gives 50% inhibition. Low readings indicate greater potency in that assay, high ones weaker potency in that assay.

`C=C(C)[C@@H]1CC[C@]2(C(=O)O)CC[C@]3(C)[C@H](CC[C@@H]4[C@@]5(C)CC[C@H](O)C(C)(C)[C@@H]5CC[C@]43C)[C@@H]12` [BA, 3β-hydroxy-lup-20(29)-en-28-oic acid, reference compound]: the IC50 was 44800 ± 2700 nM in the series on SK-MES-1 cells; 33090 ± 170 nM in the series with AU565 cells (AU565, 24 h); 9290 ± 980 nM with AU565 cells (AU565, 48 h); 43800 ± 3640 nM in the series with HCT-15 cells (HCT-15, 24 h); 9470 ± 3100 nM in the series with HCT-15 cells (HCT-15, 48 h); 3890 ± 1300 nM in the series with HCT-15 cells (HCT-15, 72 h). Moreover, the IC50 in the series with HL-60 cells came out at 21900 ± 1500 nM; with AGS cells, 14100 ± 500 nM; in series [1], 56700 ± 4300 nM; in the series on COLO205 cells (COLO205, 24 h), 97700 ± 1020 nM; in the series on COLO205 cells (COLO205, 48 h), 74600 ± 2870 nM; with COLO205 cells (COLO205, 72 h), 34300 ± 2580 nM. Moreover, in the series with J82 cells, the IC50 came to 32800 ± 1700 nM.

As for `C=C(C)[C@@H]1CC[C@]2(C(=O)OCCCCC[P+](c3ccccc3)(c3ccccc3)c3ccccc3)CC[C@]3(C)C(CCC4[C@@]5(C)CC[C@H](O)C(C)(C)C5CC[C@]43C)C12` (stereo partly drawn) [BA-C5-TPP^+Br^−, 5-Triphenylphosphoniopentyl 3β-hydroxylup-20(29)-en-28-oate bromide], the IC50 with SK-MES-1 cells was found to be 470 ± 40 nM; with AU565 cells (AU565, 24 h), 5910 ± 80 nM; in the series with AU565 cells (AU565, 48 h) it was 1020 ± 180 nM; with HCT-15 cells (HCT-15, 24 h), 5170 ± 1320 nM; with HCT-15 cells (HCT-15, 48 h), 1930 ± 360 nM; with HCT-15 cells (HCT-15, 72 h), 1930 ± 320 nM. The IC50 in the series with HL-60 cells amounted to 630 ± 50 nM; with AGS cells, 770 ± 80 nM; in series [1], 830 ± 20 nM; in the series with MCF-7 cells [3] (MCF-7, 24 h) it was 8680 ± 1270 nM; with MCF-7 cells [3] (MCF-7, 48 h), 1770 ± 400 nM; with MDA-MB-231 cells (MDA-MB-231, 24 h) it was 5500 ± 600 nM. For the same molecule, the 50% inhibitory concentration (IC50) in the series on MDA-MB-231 cells (MDA-MB-231, 48 h) was 2530 ± 650 nM; in the series on COLO205 cells (COLO205, 24 h) it was 4320 ± 2400 nM; with COLO205 cells (COLO205, 48 h), 1620 ± 1150 nM; in the series on COLO205 cells (COLO205, 72 h), 1610 ± 20 nM; in the series with J82 cells, 1220 ± 10 nM. Moreover, the increase in potency entry in the series on human cancer cell lines is given as “over 100 fold”. For the same molecule, in the series on MCF-7 cells [2], the mitochondrial uncoupling effect entry is “concentration-dependent uncoupling effect, though less pronounced than that of BA-C4-TPP^+Br^−”.

As for `C=C(C)[C@@H]1CC[C@]2(C(=O)OCCCCCC[P+](c3ccccc3)(c3ccccc3)c3ccccc3)CC[C@]3(C)C(CCC4[C@@]5(C)CC[C@H](O)C(C)(C)C5CC[C@]43C)C12` (stereo partly drawn) [BA-C6-TPP^+Br^−, 6-Triphenylphosphoniohexyl 3β-hydroxylup-20(29)-en-28-oate bromide], the IC50 in the series on SK-MES-1 cells is 680 ± 10 nM; in the series with AU565 cells (AU565, 24 h) it was 6370 ± 310 nM; in the series on AU565 cells (AU565, 48 h), 1330 ± 120 nM; with HCT-15 cells (HCT-15, 24 h), 9040 ± 2800 nM; with HCT-15 cells (HCT-15, 48 h) it was 2890 ± 240 nM; with HCT-15 cells (HCT-15, 72 h), 2400 ± 130 nM. In addition, the IC50 was 910 ± 10 nM in the series with HL-60 cells; 1270 ± 20 nM with AGS cells; 1350 ± 100 nM in [1]; 7690 ± 1320 nM in the series with MCF-7 cells [3] (MCF-7, 24 h); 4620 ± 530 nM in the series with MCF-7 cells [3] (MCF-7, 48 h); 7280 ± 530 nM in the series on MDA-MB-231 cells (MDA-MB-231, 24 h). The IC50 is 2660 ± 80 nM with MDA-MB-231 cells (MDA-MB-231, 48 h); 4870 ± 1430 nM in the series with COLO205 cells (COLO205, 24 h); 840 ± 390 nM in the series with COLO205 cells (COLO205, 48 h); 970 ± 290 nM in the series with COLO205 cells (COLO205, 72 h); 1710 ± 50 nM with J82 cells. In addition, the increase in potency entry with human cancer cell lines was “over 100 fold”. Moreover, the mitochondrial uncoupling effect result in the series on MCF-7 cells [2] is “not seen at the tested concentrations”.

For the molecule `C=C(C)[C@@H]1CC[C@]2(C(=O)O)CC[C@]3(C)[C@H](CC[C@@H]4[C@@]5(C)CC[C@H](OC(=O)CC(C)(C)C(=O)O)C(C)(C)[C@@H]5CC[C@]43C)[C@@H]12` [Compound 4, 3-O-(3′,3′-Dimethylsuccinyl)-BA], the tolerance result in [4] (all studied doses) is reported as “good tolerance at all studied doses”. In series [4], the half-life result was “long half-life” and the oral absorption entry is “rapid oral absorption”.

Regarding `COc1cc([C@@H]2c3cc4c(cc3[C@@H](O[C@@H]3O[C@@H]5CO[C@@H](C)O[C@H]5[C@H](O)[C@H]3O)[C@H]3COC(=O)[C@H]23)OCO4)cc(OC)c1O` [Etoposide, reference compound], the IC50 with SK-MES-1 cells stood at 2610 ± 10 nM; with HL-60 cells, 820 ± 10 nM; in the series with AGS cells it was 460 ± 40 nM; in [1], 3960 ± 210 nM; with J82 cells it was 2850 ± 20 nM.
